One data set concerns the target T1, GST-HRAS^G12V-GDP (Homo sapiens, UniProt P01112, G12V).
T1 construct: expression of HRAS (1-166) HRAS^G12V or KRAS^G12V cDNA cloned into the pGEX-2T vector; made in house; host or cells: E. coli C41(DE3)
As to the kind of experiment: SPR binding to GDP-bound HRAS. As to conditions: 3 to 2000 μM range. Here is the method: (§1) A BIAcore T100 (GE Healthcare) was used to screen the fragment library for RAS binders. A polyclonal goat anti-GST antibody (GE Healthcare) was immobilized on a CM5 sensor chip (GE Healthcare) by the amine coupling method. To immobilize the antibody on CM5 chip, the chip was first activated by injecting 100 µl mixture of 0.2 M EDC (N-ethyl-N-(dimethylaminopropyl) carbodiimide hydrochloride) and 0.05 M NHS (N-hydroxysuccinimide) at 10 µl/min flow rate. Furthermore, 100 µg/ml anti-GST antibody in 10 mM sodium acetate, pH 5.0 was injected at 5 µl/min for 900 s and immobilized until 20,000 ~ 25,000 RU. After immobilization the chip was immediately inactivated by injecting 1 M ethanolamine, pH 8.5 at 10 µl/min for 600 s. The chip was kept running in the HBS buffer (GE Healthcare) comprising 10 mM HEPES, pH 8.0, 150 mM NaCl. Of all, 5 µg/ml recombinant GST, GST-HRAS^G12V-GTPγS or GST-HRAS^G12V-GDP proteins were injected into flow cell Fc4, Fc2 and Fc3, respectively for trapping through the immobilized anti-GST antibody. The GST-HRAS^G12V-GTPγS, GST-KRAS^G12V-GppNHpp, or GST-HRAS^G12V-GDP proteins were injected at 5 µl/min for 900 s and usually reached approximately 2000–2500 RU. […]
A general note: SPR reads the build-up and loss of mass on a sensor chip optically.

Data set [1] has as its target T2, GST-HRAS^G12V-GTPγS-anti-RAS single chain Fv (scFv) (Homo sapiens, UniProt P01112, G12V).
T2 construct: expression of HRAS (1-166) HRAS^G12V or KRAS^G12V cDNA cloned into the pGEX-2T vector; made in house; host or cells: E. coli C41(DE3)
As to the kind of experiment: Competitive SPR (cSPR) with anti-RAS scFv bound to HRAS. The format is binding. The note with it: 3 to 2000 μM range. How it is done: For competitive SPR (cSPR) assays between anti-RAS scFv and candidate fragment binder, after immobilizing anti-GST polyclonal antibody was immobilized on CM5 sensor chip as described above, then 5 µg/ml GST-HRAS-GTPγS protein was injected at 5 µl/min for 900 s to flow cells Fc2 and 4 and 5 µg/ml GST-HRAS-GDP to Fc3. Following GST-HRAS capture on the flow cells, 5 µg/ml anti-RAS scFv Y6-204 was injected at 5 µl/min for 900 s only to Fc4 until reaching an additional 1500–1800 RU, which is theoretically when all GST-HRAS-GTPγS should be bound to anti-RAS scFv with 1:1 interaction stoichiometry. After completing anti-RAS scFv injection, the sensograms were confirmed to be stable (i.e. anti-RAS scFv was not dissociated from GST-HRAS-GTPγS on Fc4). […]

The target in another data set is T3, GST-HRAS^G12V-GTPγS (Homo sapiens, UniProt P01112, G12V).
T3 construct: expression of HRAS (1-166) HRAS^G12V or KRAS^G12V cDNA cloned into the pGEX-2T vector; made in house; host or cells: E. coli C41(DE3)
As to the kind of experiment: SPR binding to immobilized GST-HRAS G12V-GTPγS. How it is done: as §1
The corresponding kinetic […], were determined using steady-state analysis of the compounds’ binding affinities, assuming 1:1 ligand-protein stoichiometry. […]

The nature of another data set: Solubility. The format is physicochemical.
The target in another data set is T4, KRAS^G12V-GppNHp (Homo sapiens, UniProt P01116, G12V).
T4 construct: made in house; host or cells: E. coli (pGEX-2T; strain named only for the HRAS plasmids)
As to the kind of experiment: SPR binding to KRAS G12V-GppNHp. The note with it: 100 μM, run in triplicate. How it is done:
A BIAcore T100 (GE Healthcare) was used to screen the fragment library for RAS binders. A polyclonal goat anti-GST antibody (GE Healthcare) was immobilized on a CM5 sensor chip (GE Healthcare) by the amine coupling method. To immobilize the antibody on CM5 chip, the chip was first activated by injecting 100 µl mixture of 0.2 M EDC (N-ethyl-N-(dimethylaminopropyl) carbodiimide hydrochloride) and 0.05 M NHS (N-hydroxysuccinimide) at 10 µl/min flow rate. Furthermore, 100 µg/ml anti-GST antibody in 10 mM sodium acetate, pH 5.0 was injected at 5 µl/min for 900 s and immobilized until 20,000 ~ 25,000 RU. After immobilization the chip was immediately inactivated by injecting 1 M ethanolamine, pH 8.5 at 10 µl/min for 600 s. The chip was kept running in the HBS buffer (GE Healthcare) comprising 10 mM HEPES, pH 8.0, 150 mM NaCl. Of all, 5 µg/ml recombinant GST, GST-HRAS^G12V-GTPγS or GST-HRAS^G12V-GDP proteins were injected into flow cell Fc4, Fc2 and Fc3, respectively for trapping through the immobilized anti-GST antibody. The GST-HRAS^G12V-GTPγS, GST-KRAS^G12V-GppNHpp, or GST-HRAS^G12V-GDP proteins were injected at 5 µl/min for 900 s and usually reached approximately 2000–2500 RU. The GST was injected at same flow rate until about 1200–1350 RU which is 0.54 times less than the GST-HRAS^G12V-GTPγS or GST-HRAS-GDP capture amounts, taking into consideration relative molecular weights (GST, 26KDa, GST-RAS, 48KDa, respectively). Before fragment library screening, the running buffer was replaced by 20 mM Tris, pH 8, 150 mM NaCl, 5 mM MgCl2, 5% DMSO. DMSO solvent correction curves were generated by injecting the running buffers with serial concentrations of DMSO ranging from 4.5 to 6%. […] The individual compounds were injected at 30 µl for 60 s at 30 µl/min flow rate over flow cells Fc1, Fc2, Fc3 and Fc4. The captured GST and GST-RAS were removed from the chip by rinsing with 40 µl 10 mM glycine-HCl, pH 2.1 at 20 µl/min flow rate after every 48 compounds sequential injection. The chip was regenerated by injecting new GST and GST-RAS proteins as described above.

Another data set deals with HT1080 cells (NRAS^Q61K). In words: Cell viability (CellTiterGlo), HT1080. The format is cell-based, human. As to conditions: HT1080, 0–20 μM, up to 72 h. How it is done:
(§2) Fig. 5 Abd-7 results on RAS-dependent signalling pathways and cell viability. a, b DLD-1 (a) or H358 (b) cells were serum-starved for 24 h, incubated in mono-layer with Abd-7 in a range from 2, 5, 10 and 20 μM for 3 h and stimulated with EGF 10 min. Proteins were extracted and separated by SDS-PAGE and transferred to membranes for Western analysis with anti-pAKT, anti-pERK, anti-pan AKT and anti-pan ERK. Anti-cyclophilin B antibody was the loading control. Signal was developed using standard ECL. c–e Effects of compounds Abd-2, Abd-4, Abd-5, Abd-6, and Abd-7 on the viability of human cancer cells lines was assessed for a 2-D culture of DLD-1 (mutant KRAS^G13D) cells and HT1080 cells (mutant NRAS^Q61K). The cells were treated with a dose range from 0 μM to 20 μ and incubated for 72 h when cell viability was assessed using CellTitreGlo. […] Each experiment was repeated at least three times (a, b) and four times (c, d). Where error bars are presented, they correspond to mean values ± SD of biological repeats […]
(§3) Cancer cell lines were in seeded in ViewPlates-96 microplates (PerkinElmer). DLD-1 cells were plated at 10,000 cells per well and HT1080 cells at 7500 cells per well and cultured in DMEM, high glucose, GlutaMAX media containing 10% FBS at 37 °C in 5% CO2 atmosphere. Cells were cultured overnight and the compounds (dissolved in DMSO and diluted to 0.2% DMSO) were added to the cells at concentrations ranging from 0 to 20 μM. The cells were incubated under standard culture conditions for either 24, 48 or 72 h. Cell viability was as quantitated using the CellTiterGlo Luminescent Cell Viability Assay (Promega) according to the manufacturer’s instructions to measure ATP generated by metabolically active cells. Luminescent signals were measured using an Envision 2103 Multilabel Microplate Reader (PerkinElmer). The luminescence signals obtained from the compound-treated cells were normalized against the signal for DMSO-only treated cells. The IC50 values, calculated from the 48 and 72 h CellTiterGlo data, were generated by non-linear regression using the software GraphPad Prism 7.00 for windows (GraphPad Inc).
(§4) Supplementary Figure 7: The effect of Abd compounds on the viability of cancer cells The effect of the chemical series on the viability of human cancer cells lines DLD -1 (a colorectal cancer cell line with mutant KRAS
(§5) ) and HT1080 (a fibrosarcoma cell line with
(§6) ). The cells were treated with a dose range from […] of either
(§7) Abd-2, Abd-4, Abd-5, Abd-6 and Abd-7 and incubated for 24 or 48 hours. Cell viability was assessed using CellTitreGlo . In each case, the data are normalized to cells treated with DMSO only. Panels a and b are DLD-1 viability and panels c and d are HT1080 viability.
(§8) The IC50 for Abd-7 at 48 & 72 […]
(§9) hours are shown in panel f. Each experiment was repeated at least four times ( a to d).
(§10) Where error bars are presented, they correspond to mean values ± SD of biological repeats.
(§11) (1 picture or pasted object on this page, not shown here)

The subject of the next data set is DLD-1 cells (KRAS^G13D). In words: Cell viability (CellTiterGlo), DLD-1. It is filed as cell-based, human. As to conditions: DLD-1, 0–20 μM, up to 72 h. How it is done: as §2, §3, §4, §5, §6, §7, §8, §9, §10, §11
(In ATP-based viability assays light output follows the ATP content of the culture.)

In another data set the test system is RAS-effector PPI. As to the kind of experiment: RAS biosensor BRET assay (partners not specified). The format is cell-based, human. How it is done:
The BRET assay was carried out as described elsewhere. A total of 650,000 HEK293T were seeded in each well of a six well plate. Approximately, 24 h later, cells were transfected with an appropriated BRET-based RAS biosensor (i.e. RAS-effector) using Lipofectamine 2000 transfection reagent (Thermo-Fisher). Cells were detached 24 h later and washed with PBS and seeded in a white 96 well plate (clear bottom, PerkinElmer, cat#6005181) in OptiMEM no phenol red medium (Life Technologies) complemented with 4% FBS. Cells were left for 4 h at 37 °C before adding compounds. […] The final concentrations in the cells were 0, 5, 10 and 20 μM (therefore the intermediate 10X concentrations were 0, 50, 100 and 200 μM. Furthermore, 10 μl of 10X compounds were added in each well of the 96 well plate to 0, 5, 10 and 20 μM final concentrations (with final 0.2% DMSO each). Quadruplicates were performed for each point. Cells were left for an additional 20 h at 37 °C before the BRET2 signal reading directly after addition of Coelenterazine 400a substrate (10 μM final) to cells (Cayman Chemicals, cat#16157). BRET2 reading was carried out on an Envision instrument (2103 Multilabel Reader, PerkinElmer) with the BRET2 Dual Emission optical module (515 nm ± 30 and 410 nm ± 80; PerkinElmer).

Converted amounts (≈) assume the structure as drawn.

Usually Kd stands for the concentration at which binding is half-saturated. A word on the solubility: it is the concentration that dissolves in the medium under given conditions. A lower solubility goes with a poorly soluble substance.

Turning to `O=C(Nc1ccc2ccccc2n1)c1ccco1` [Abd-1, N-(2-quinolinyl)-2-furamide], the “binding to GDP-bound form of HRAS (SPR)” value at GST-HRAS^G12V-GDP is given as “no binding”. The “binding to HRAS^G12V in complex with anti-RAS scFv (cSPR)” value in data set [1] is listed as “no binding”. Besides, the “binding to GST-HRAS^G12V-GTPγS (SPR dose response)” value on GST-HRAS^G12V-GTPγS (3 to 2000 μM range) is “bound and bind”. Moreover, at GST-HRAS^G12V-GTPγS (SPR, estimated, single experimental analysis), the Kd is > 370 µM. The concentration in solution in the data set “Solubility” (solubility) was 140 µM (≈ 33.4 µg/mL).
`O=C(NC[C@H]1COc2ccccc2O1)c1ccco1` [Abd-2a]: the “binding to KRAS^G12V-GppNHp (SPR)” value on KRAS^G12V-GppNHp was “bind”.
The same measure, in the same setting: as for `O=C(NC[C@@H]1COc2ccccc2O1)c1ccco1` [Abd-2b], the entry is “bind”; as for `NCC1COc2cc(Cl)ccc2O1` (centres unmarked) [Abd-3], “lower affinity than Abd-2”.
Turning to `CN(C)CCOc1ccc(C(=O)NCC2COc3ccccc3O2)cc1` (centres unmarked) [Abd-4], the “effect on cell viability” value in the data set on HT1080 cells (NRAS^Q61K) and in the data set on DLD-1 cells (KRAS^G13D) was “no effect on cell viability” each time. Moreover, the “activity in the RAS biosensor BRET assay” value with RAS-effector PPI is reported as “do not show activity”.

Source of the values: PMC6085350, “Small molecule inhibitors of RAS-effector protein interactions derived using an intracellular antibody fragment” (Nature Communications, 2018).
